Converted amounts (≈) assume the structure as drawn.
The compounds below were run on Pseudomonas aeruginosa FP 1380 (assay: In vitro antibacterial activity (MIC) by two-fold agar-plate dilution method). Details: FP1380; test strain Pseudomonas aeruginosa FP 1380; heart infusion agar, incubation at 37° C. for 20 hours.
Format: cell-based
Experimental: Now in order to show the utility of the object compound [I], the test data on MIC (minimal inhibitory concentration) of a representative compound of this invention are shown in the following.
In vitro antibacterial activity was determined by the two-fold agar-plate dilution method as described below.
One loopful of an overnight culture of each test strain in Trypticase-soy broth (10^6 viable cells per ml) was streaked on heart infusion agar (HI-agar) containing graded concentrations of representative test compound, and the minimal inhibitory concentration (MIC) was expressed in μg/ml after incubation at 37° C. for 20 hours.

Row | Compound | MIC [µg/mL]
1 | CC(C)(O/N=C(\C(=O)N[C@@H]1C(=O)N2C(C(=O)[O-])=C(C[n+]3ccccc3)CS[C@H]12)c1csc(N)n1)C(=O)O [Ceftazidime, reference compound] | 128 (≈ 234 µM)
2 | Cn1c(N)c(NC(=O)NC(CN)CN)c[n+]1CC1=C(C(=O)O)N2C(=O)[C@@H](NC(=O)/C(=N\OC(C)(C)C(=O)O)c3nsc(N)n3)[C@H]2SC1.O=S(=O)([O-])O [Compound (d), 7β-[(Z)-2-(5-amino-1,2,4-thiadiazol-3-yl)-2-(1-carboxy-1-methylethoxyimino)acetamido]-3-(3-amino-4-{3-[2-amino-1-(aminomethyl)ethyl]ureido}-2-methyl-1-pyrazolio)methyl-3-cephem-4-carboxylic acid hydrogensulfate] | 1
3 | Cn1c(N)c(NC(=O)CC(=O)NC(CN)CN)c[n+]1CC1=C(C(=O)[O-])N2C(=O)[C@@H](NC(=O)/C(=N\OC(C)(C)C(=O)O)c3nsc(N)n3)[C@H]2SC1 [Compound (e), 7β-[(Z)-2-(5-amino-1,2,4-thiadiazol-3-yl)-2-(1-carboxy-1-methylethoxyimino)acetamido]-3-{3-amino-4-[(3-{[2-amino-1-(aminomethyl)ethyl]amino}-3-oxopropanoyl)amino]-2-methyl-1-pyrazolio}methyl-3-cephem-4-carboxylate] | 1 (≈ 1.36 µM)

The remaining compounds from weak to strong by MIC, led by results:

Row | MIC [µg/mL] | Compound
4 | 1 (≈ 1.38 µM) | Cn1c(N)c(NC(=O)N(CCN)CCCN)c[n+]1CC1=C(C(=O)[O-])N2C(=O)[C@@H](NC(=O)/C(=N\OC(C)(C)C(=O)O)c3nsc(N)n3)[C@H]2SC1 [Compound (c), 7β-[(Z)-2-(5-amino-1,2,4-thiadiazol-3-yl)-2-(1-carboxy-1-methylethoxyimino)acetamido]-3-[3-amino-4-({[N-(2-aminoethyl)-N-(3-aminopropyl)amino]carbonyl}-amino)-2-methyl-1-pyrazolio]methyl-3-cephem-4-carboxylate]
5 | 1 (≈ 1.41 µM) | Cn1c(N)c(NC(=O)N(CCN)CCN)c[n+]1CC1=C(C(=O)[O-])N2C(=O)[C@@H](NC(=O)/C(=N\OC(C)(C)C(=O)O)c3nsc(N)n3)[C@H]2SC1 [Compound (a), 7β-[(Z)-2-(5-amino-1,2,4-thiadiazol-3-yl)-2-(1-carboxy-1-methylethoxyimino)acetamido]-3-{3-amino-4-({[bis(2-aminoethyl)amino]carbonyl}amino)-2-methyl-1-pyrazolio}methyl-3-cephem-4-carboxylate]
6 | 1 | Cn1c(N)c(NC(=O)N(CCN)CCN)c[n+]1CC1=C(C(=O)O)N2C(=O)[C@@H](NC(=O)/C(=N\OC(C)(C)C(=O)O)c3nsc(N)n3)[C@H]2SC1.O=S(=O)([O-])O [Compound (b), 7β-[(Z)-2-(5-amino-1,2,4-thiadiazol-3-yl)-2-(1-carboxy-1-methylethoxyimino)acetamido]-3-{3-amino-4-({[bis(2-aminoethyl)amino]carbonyl}amino)-2-methyl-1-pyrazolio}methyl-3-cephem-4-carboxylic acid hydrogensulfate]

— patent US7192943B2, “Cephem compounds” (Astellas Pharma Inc., priority 2003, dated 2007)
